# Assay results published in ChEMBL document CHEMBL3627634, “Synthesis of novel benzohydrazone-oxadiazole hybrids as β-glucuronidase inhibitors and molecular modeling studies” (Bioorg Med Chem, 2015).
# Target: T1, Beta-glucuronidase (Bos taurus, UniProt A3KMY8)
# T1 sequence (A3KMY8 whole entry): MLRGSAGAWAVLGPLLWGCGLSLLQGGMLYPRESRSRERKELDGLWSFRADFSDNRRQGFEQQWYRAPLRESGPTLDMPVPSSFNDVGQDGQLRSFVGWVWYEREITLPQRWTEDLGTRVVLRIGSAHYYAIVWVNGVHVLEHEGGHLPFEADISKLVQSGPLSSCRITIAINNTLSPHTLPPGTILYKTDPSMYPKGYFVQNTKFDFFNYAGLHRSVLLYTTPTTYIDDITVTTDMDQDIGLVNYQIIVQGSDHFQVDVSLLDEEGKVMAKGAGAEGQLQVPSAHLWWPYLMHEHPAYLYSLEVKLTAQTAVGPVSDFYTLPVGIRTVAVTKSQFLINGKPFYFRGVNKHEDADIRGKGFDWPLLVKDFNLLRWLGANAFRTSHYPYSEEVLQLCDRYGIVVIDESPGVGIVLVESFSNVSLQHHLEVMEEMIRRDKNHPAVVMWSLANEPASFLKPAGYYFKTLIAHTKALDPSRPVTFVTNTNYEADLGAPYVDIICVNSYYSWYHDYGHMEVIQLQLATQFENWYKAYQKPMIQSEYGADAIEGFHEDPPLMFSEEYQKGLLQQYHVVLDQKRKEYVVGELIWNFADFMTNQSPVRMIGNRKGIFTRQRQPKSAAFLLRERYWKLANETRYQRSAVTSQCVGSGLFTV
# Assay: Inhibition of bovine liver beta-glucuronidase using p-nitrophenyl-beta-D-glucuronide as substrate assessed as p-nitrophenol formation after 30 mins by multiplate reader analysis
# Settings: not given; call rule not given here
row,SMILES,IC50
1,Cc1ccccc1/C=N/NC(=O)c1ccc(-c2nnc(-c3ccccc3O)o2)cc1,Not Active
2,Cc1cccc(/C=N/NC(=O)c2ccc(-c3nnc(-c4ccccc4O)o3)cc2)c1,Not Active
3,O=C(N/N=C/c1ccccc1[N+](=O)[O-])c1ccc(-c2nnc(-c3ccccc3O)o2)cc1,Not Active
4,COc1ccccc1/C=N/NC(=O)c1ccc(-c2nnc(-c3ccccc3O)o2)cc1,Not Active
5,O=C(N/N=C/c1cccc(F)c1)c1ccc(-c2nnc(-c3ccccc3O)o2)cc1,Not Active
6,O=C(N/N=C/c1cccc(Cl)c1)c1ccc(-c2nnc(-c3ccccc3O)o2)cc1,Not Active

# Now from value to molecule:
row,IC50,SMILES
1,Not Active,O=C(N/N=C/c1ccccc1Cl)c1ccc(-c2nnc(-c3ccccc3O)o2)cc1
2,Not Active,Cc1ccc(/C=N/NC(=O)c2ccc(-c3nnc(-c4ccccc4O)o3)cc2)cc1
3,Not Active,O=C(N/N=C/c1cccnc1)c1ccc(-c2nnc(-c3ccccc3O)o2)cc1
4,Not Active,O=C(N/N=C/c1ccncc1)c1ccc(-c2nnc(-c3ccccc3O)o2)cc1
5,Not Active,O=C(N/N=C/c1ccc(F)cc1)c1ccc(-c2nnc(-c3ccccc3O)o2)cc1

# Same assay, conditions: read-out: IC50
row,SMILES,IC50 [µM]
1,O=C(N/N=C/c1ccc(O)cc1)c1ccc(-c2nnc(-c3ccccc3O)o2)cc1,18.5
2,O=C(N/N=C/c1cccc(O)c1)c1ccc(-c2nnc(-c3ccccc3O)o2)cc1,34.5
3,O=C(N/N=C/c1ccc(O)c(O)c1)c1ccc(-c2nnc(-c3ccccc3O)o2)cc1,29.2
4,O=C(N/N=C/c1cc(O)ccc1O)c1ccc(-c2nnc(-c3ccccc3O)o2)cc1,15.1
5,O=C(N/N=C/c1cccc([N+](=O)[O-])c1)c1ccc(-c2nnc(-c3ccccc3O)o2)cc1,64.1
6,O=C(N/N=C/c1ccc([N+](=O)[O-])cc1)c1ccc(-c2nnc(-c3ccccc3O)o2)cc1,44.2
7,COc1ccc(/C=N/NC(=O)c2ccc(-c3nnc(-c4ccccc4O)o3)cc2)cc1O,7.14
8,O=C(N/N=C/c1ccccc1O)c1ccc(-c2nnc(-c3ccccc3O)o2)cc1,91.4
9,O=C(N/N=C/c1ccccn1)c1ccc(-c2nnc(-c3ccccc3O)o2)cc1,42.3
10,O=C(N/N=C/c1ccccc1F)c1ccc(-c2nnc(-c3ccccc3O)o2)cc1,108

# The next lines start with the values.
row,IC50 [µM],SMILES
1,82.2,O=C(N/N=C/c1c(O)cc(O)cc1O)c1ccc(-c2nnc(-c3ccccc3O)o2)cc1
2,21.1,O=C(N/N=C/c1cc(O)c(O)cc1O)c1ccc(-c2nnc(-c3ccccc3O)o2)cc1
3,86.1,O=C(N/N=C/c1ccc(Cl)cc1)c1ccc(-c2nnc(-c3ccccc3O)o2)cc1
4,88.1,COc1ccc(O)c(/C=N/NC(=O)c2ccc(-c3nnc(-c4ccccc4O)o3)cc2)c1
